Values quoted from earlier work as cited in article PMC8066102, “Metabolic Profiles of New Unsymmetrical Bisacridine Antitumor Agents in Electrochemical and Enzymatic Noncellular Systems and in Tumor Cells” (Pharmaceuticals, 2021).

Design: method as in PMID 2810109, PMID 12920162
Settings: after UGT2B7 glucuronidation; cited from earlier work

Q: With `CN1CC[C@]23c4c5ccc(O)c4O[C@H]2[C@@H](O[C@@H]2O[C@H](C(=O)O)[C@@H](O)[C@H](O)[C@H]2O)C=C[C@H]3[C@H]1C5` [morphine-6-glucuronide] as the molecule, how does the “analgesic activity relative to morphine” value read?
A: 650 fold
